Test results published in patent publication US20100204131A1, “USE OF A PEPTIDE AS A THERAPEUTIC AGENT” (priority 2007, published 2010).
No end group written: not given here.

Columns and labels:
[1] = tested on: hepatitis B virus (HBV) ayw strain; assay: HBV experimental assay system (HepG2-2.2.15, TaqMan PCR); format: cell-based; conditions: 10 micrograms per ml; HepG2-2.2.15 cells; six days; HBV DNA by TaqMan PCR
Excerpt: HepG2-2.2.15 is a stable cell line containing the hepatitis B virus (HBV) ayw strain genome (ATCC Cat. No. CRL-11997). Antiviral compounds blocking any late step of viral replication such as transcription, translation, pregenome encapsidation, reverse transcription, particle assembly and release can be identified and characterized using this cell line. In this assay, an active compound will reduce the production of secreted HBV from cells, measured by utilizing real time quantitative PCR (TaqMan) assay to directly and accurately measure HBV DNA copies.
HepG2-2.2.15 cells were plated in 96-well microtiter plates. After 16-24 hours the confluent monolayer of HepG2-2.2.15 cells was washed and the medium was replaced with complete medium containing test peptides—10 micrograms per ml—in duplicate. […] Six days following the initial administration of the peptides, the cell culture supernatants was collected, treated with pronase and DNAse and then used in a real-time quantitative TaqMan PCR assay. The PCR-amplified HBV DNA was detected in real-time by monitoring increases in fluorescence signals that result from the exonucleolytic degradation of a quenched fluorescence probe molecule that hybridizes to the amplified HBV DNA. […] Antiviral activity was calculated from the reduction in HBV DNA levels (% virus control). […]

IL-2 spleen cells = assay: Th1/Th2 cytokine profiling assay: IL-2; conditions: 10 micrograms per ml; spleen cells of Ovalbumin-immunized Balb/c mice restimulated with Ovalbumin 10 micrograms/ml; 72 hours; supernatant
Excerpt: (§1) The Balb/c mice (originated in 1923, it is a popular strain and is used in many different research disciplines. Also classified as an inbred from the production of 20 or more successive brother-sister matings, the Balb/c mouse is albino and small in size) were immunized on Days 1, 15, and 29 with Ovalbumin (Ovalbumin is the main protein found in egg white, commonly used to stimulate an immunological reaction in test animals) in PBS (5 micrograms/injection). On day 50, spleens of the mice were harvested (3 weeks after last boost with Ovalbumin). […] Thereafter, additional Ovalbumin was added to the cells at 10 micrograms/ml for in vitro restimulation of the cells. 72 hours later, cell supernatants were harvested and assayed using the Becton Dickinson Mouse Th1/Th2 Cytokine CBA Kit.

TNF-a spleen cells = assay: Th1/Th2 cytokine profiling assay: TNF-a; conditions: 10 micrograms per ml; spleen cells of Ovalbumin-immunized Balb/c mice restimulated with Ovalbumin 10 micrograms/ml; 72 hours; supernatant
Excerpt: (§2) The Balb/c mice (originated in 1923, it is a popular strain and is used in many different research disciplines. Also classified as an inbred from the production of 20 or more successive brother-sister matings, the Balb/c mouse is albino and small in size) were immunized on Days 1, 15, and 29 with Ovalbumin (Ovalbumin is the main protein found in egg white, commonly used to stimulate an immunological reaction in test animals) in PBS (5 micrograms/injection). On day 50, spleens of the mice were harvested (3 weeks after last boost with Ovalbumin). […] Thereafter, additional Ovalbumin was added to the cells at 10 micrograms/ml for in vitro restimulation of the cells. 72 hours later, cell supernatants were harvested and assayed using the Becton Dickinson Mouse Th1/Th2 Cytokine CBA Kit. This kit can be used to measure Interleukin-2 (IL-2), Interleukin-4 (IL-4), Interleukin-5 (IL-5), Interferon-γ (IFN-γ), and Tumor Necrosis Factor-α (TNF-α) protein levels in a single sample.

IL-5 spleen cells = assay: Th1/Th2 cytokine profiling assay: IL-5; conditions: 10 micrograms per ml; spleen cells of Ovalbumin-immunized Balb/c mice restimulated with Ovalbumin 10 micrograms/ml; 72 hours; supernatant
Excerpt: as §1

IFNγ spleen cells = assay: Th1/Th2 cytokine profiling assay: IFNγ; conditions: 10 micrograms per ml; spleen cells of Ovalbumin-immunized Balb/c mice restimulated with Ovalbumin 10 micrograms/ml; 72 hours; supernatant
Excerpt: as §2

IL-4 spleen cells = assay: Th1/Th2 cytokine profiling assay: IL-4; conditions: 10 micrograms per ml; spleen cells of Ovalbumin-immunized Balb/c mice restimulated with Ovalbumin 10 micrograms/ml; 72 hours; supernatant
Excerpt: as §1

HCMV strain AD169 = assay: HCMV plaque formation assay in MRC-5 cells; conditions: for inhibition of HCMV plaque formation as compared to the virus control: 10 micrograms per ml, MRC-5 cells, 7-10 days
HUVEC = assay: Endothelial tube formation assay; conditions: 10 micrograms per ml, 20 hours, average tubule length
Protocol: The endothelial tube formation assay is based on the ability of endothelial cells to form three-dimensional capillary-like tubular structures when cultured on a gel of basement membrane extract. […] Pre-labeled HUVEC with Calcein AM were seeded in a 96-well culture plate coated with extracellular metrix (Chemicon international Cat. ECM625) and treated with test peptides—10 micrograms per ml—in full growth medium. Positive control was vehicle only. The endothelial cells were allowed to form tubes foe 20 hours and were then examined under an inverted fluorescent microscope. Duplicate wells for each treatment were photographed and quantitatevily analyzed for an average tubule length using image analysis software ImageProPlus. Raw data were expressed as average tubule lengths in pixels ±standard deviation. Statistic p values were computed using the Student's t-test.

[2] = tested on: Primary Human endothelial cells (HUVEC); assay: Endothelial cell migration assay; conditions: 10 micrograms per ml, 22 hours, transwell
Protocol: Primary Human endothelial cells (HUVEC) were seeded in insert chambers with 3 micrometer pore size of multi-transwell plate for 6 hours at 37° C. in Endothelial Cell Basal Medium (EBM) supplemented with 0.1% bovine serum albumin. Thereafter, designated concentration of testing peptides -10 micrograms per ml—was added in duplicate wells. The endothelia were allowed to migrate for 22 hours at 37° C., then, migrated cells were fixed and stained with Hoechst 33342 dye. Images of 3 fields per insert were taken and the number of migrated cells per field were quantified using the ImageProPlus software. Data were analyzed for the average number of the migrated cells and standard deviation of six data points for each treatment condition. […] Statistic p values were computed using the Student's t-test.

HIV-1IIIB = assay: HIV-1 antiviral assay in CEM-SS cells; conditions: CEM-SS cells infected with HIV-1IIIB

Molecule	inhibition of HBV replication on tested liver cells [1]	IL-2 spleen cells (% of control) (IL-2 spleen cells)	TNF-a spleen cells; TH1 response (% of control) (TNF-a spleen cells)	IL-5 spleen cells; TH2 response (% of control) (IL-5 spleen cells)	IFNγ spleen cells; TH1 response (% of control) (IFNγ spleen cells)	IL-4 spleen cells; TH2 response (% of control) (IL-4 spleen cells)	inhibition of HCMV plaque formation as compared to the virus control (HCMV strain AD169)	inhibition of the tube formation of endothelial cells (HUVEC)	inhibition of the migration of human endothelial cells [2]	antiviral activity of positive control compounds (HIV-1IIIB)	antiviral activity of positive control compound (HCMV strain AD169; positive control, HCMV in MRC-5 cells)
Ser-Tyr-Ser-Met-Glu-His-Phe-Arg-Trp-Gly-Lys-Pro-Val-Gly-Lys-Lys-Arg-Arg-Pro-Val-Lys-Val-Tyr-Pro-OH (SYSMEHFRWGKPVGKKRRPVKVYP-OH) [peptide 1]	no effect	149.2 % of control	97.0 % of control	82.6 % of control	103.7 % of control	132.1 % of control	did not inhibit	25%	did not inhibit	–	–
CC(C)(C)NC(=O)[C@@H]1CN(Cc2cccnc2)CCN1C[C@@H](O)C[C@@H](Cc1ccccc1)C(=O)N[C@H]1c2ccccc2C[C@H]1O [indinavir]	–	–	–	–	–	–	–	–	–	expected levels of antiviral activity	–
Nc1nc(O)c2ncn(COC(CO)CO)c2n1 [Ganciclovir, reference compound]	–	–	–	–	–	–	–	–	–	–	expected levels of antiviral activity
Ala-Ser-Gln-Phe-Glu-Thr-Ser-OH (ASQFETS-OH) [peptide 2]	no effect	72.5 % of control	110.7 % of control	57.6 % of control	94.7 % of control	0.0 % of control	did not inhibit	27%	28%	–	–
Cc1cn([C@H]2C[C@H](N=[N+]=[N-])[C@@H](CO)O2)c(=O)[nH]c1=O [AZT]	–	–	–	–	–	–	–	–	–	expected levels of antiviral activity	–
